In patent publication US10314816B2, “Antimicrobial compounds, compositions and methods of use thereof” (Wisconsin Alumni Research Foundation, priority 2012, dated 2019):
Like-named read-outs stand apart in the source and are kept apart here.

Legend:
E. coli BW25113 ΔtolC = experiment: MIC of DCAP analogs, LB media, macrodilution (CLSI); assay type: cell-based; conditions: Escherichia coli
Procedure: Luria-Bertani (LB) media (10 g/L tryptone, 10 g/L NaCl, 5 g/L yeast extract, pH 7.0) was used to grow all the strains represented in Tables 5 and 6. All the cultures were grown at 37° C. All the E. coli strains were grown while shaking at 200 rpm and the clinical pathogens were statically incubated. […]

Morganella morganii = experiment: MIC of DCAP analogs, LB media, microdilution (CLSI); assay type: cell-based; conditions: microdilution (Table 6)
Procedure: (§1) Luria-Bertani (LB) media (10 g/L tryptone, 10 g/L NaCl, 5 g/L yeast extract, pH 7.0) was used to grow all the strains represented in Tables 5 and 6. All the cultures were grown at 37° C. All the E. coli strains were grown while shaking at 200 rpm and the clinical pathogens were statically incubated.
(§2) For clinical pathogenic organisms including S. typhimurium, V. cholera, S. boydii, K pneumonia, E. aerogenes, A. baumannii, E. tarda, and M. morganii strains, liquid LB media in 96-well microplates (100 μL/well) and the microdilution method from the CLSI guidelines were used.

Vibrio cholera = experiment: as above; assay type: cell-based; conditions: Vibrio cholerae
Procedure: as §1, §2

Klebsiella pneumonia = experiment: as above; assay type: cell-based; conditions: Klebsiella pneumoniae, microdilution (Table 6)
Procedure: as §1, §2

Enterobacter aerogenes = experiment: as above; assay type: cell-based; conditions: Klebsiella aerogenes, microdilution (Table 6)
Procedure: as §1, §2

Edwardsiella tarda = experiment: as above; assay type: cell-based; conditions: microdilution (Table 6)
Procedure: as §1, §2

Salmonella typhimurium = experiment: as above; assay type: cell-based; conditions: Salmonella enterica, microdilution (Table 6)
Procedure: as §1, §2

Acinetobacter baumannii = experiment: as above; assay type: cell-based; conditions: microdilution (Table 6)
Procedure: as §1, §2

Shigella boydii = experiment: as above; assay type: cell-based; conditions: microdilution (Table 6)
Procedure: as §1, §2

S. aureus FRI 100 [1] = experiment: Minimum stationary-bactericidal concentration (MSC); assay type: cell-based, Staphylococcus aureus; conditions: S. aureus FRI 100, stationary cells, 24 hours
Procedure: (§3) Determination of the Minimum Stationary-Bactericidal Concentration.
(§4) Cultures of C. crescentus (24 hour incubation) and S. aureus cells (5 day incubation) were grown from single colonies. Cells were collected by centrifugation (8500 rpm for 2.5 minutes) and re-suspended in M2 salt solution (for C. crescentus; 1.74 g/L Na2HPO4, 1.06 g/L KH2PO4, and 0.5 g/L NH4Cl) or phosphate-buffered saline (for S. aureus; PBS, Fisher Scientific). The centrifugation and re-suspension was repeated two more times. After the repeated washing steps, the cell suspension was diluted 10-fold to achieve approximately 10^8 cells/mL. Aliquots of the diluted cell suspension were transferred into wells of a 96-well plate (100 μL/well), and 2-fold serial dilutions were performed to test a range of antibiotic concentrations. The plate was sealed with Parafilm® and incubated for 24 hours at room temperature in the dark. After incubation, 50 μl was removed from each well to spread on nutrient agar plates (1.5% agar in PYE for C. crescentus, and LB for S. aureus). The colonies on each plate were counted after growing the cells for 1-2 days. For determining the kinetics of bactericidal activity of DCAP on stationary cultures, the washed cells were diluted by 100-fold in appropriate solutions and tested using a single concentration of the compound while including a DMSO control sample. Cell suspensions were kept in closed microcentrifuge tubes instead of the wells of 96-well plates. 100 μL of the suspensions was removed for plating at each time point. All MSC experiments were performed in static conditions.
(§5) In addition to its activity against actively growing bacteria, DCAP kills cells in stationary phase (Table 3). This property was tested against C. crescentus and S. aureus. […] To ensure that bacteria were deprived of nutrients, the cells were grown into late stationary phase (i.e., 24 hours for C. crescentus and 5 days for S. aureus). These cells were collected, suspended in isotonic solutions devoid of amino acids or sugars, and treated with a small molecule (DMSO, DCAP, CCCP or ampicillin). Cell viability was measured over time by plating culture aliquots on non-selective, solid growth media. The minimum concentration of antibiotic required to completely eliminate colony formation was designated as the minimum stationary-bactericidal concentration (MSC). […] CCCP inhibited the proliferation of C. crescentus cells regardless of their physiological status. However, the MSC of CCCP for S. aureus was >300-fold higher than the MIC. This dramatic decrease in the effectiveness of CCCP in S. aureus may be due to changes in membrane composition as cells adjust their metabolism in nutrient-deprived conditions.

C. crescentus CB15N [2] = experiment: MIC of bacterial growth, macrodilution (Table 2); assay type: cell-based, Caulobacter crescentus; conditions: actively growing cells
Procedure: Bacterial strains and growth conditions. Luria-Bertani (LB) media (10 g/L tryptone, 10 g/L NaCl, 5 g/L yeast extract, pH 7.2) was used to grow B. subtilis 168, S. aureus FRI100, and P. aeruginosa K1115 strains. For P. aeruginosa PAO1 and K1119 strains and two E. coli BW25113 strains, M8 minimal media (241 mg/L MgSO4, 4 mg/L glucose, 5 mg/L casamino acids, 12.8 g/L Na2HPO4.7H2O, 3 g/L KH2PO4, and 0.5 g/L NaCl) was used. PYE media (2 g/L peptone, 1 g/L yeast extract, 0.8 mM MgSO4, and 0.5 mM CaCl2) was used for culturing C. crescentus cells at 30° C. All cultures were grown at 37° C., except for C. crescentus (30° C.). All cultures were grown while shaking at 200 rpm.
Determination of the minimum inhibitory concentration (MIC) of bacterial growth. The MIC of various organisms in liquid media was determined using the macrodilution method according to the NCCLS guidelines. For the starting inoculum, cultures were diluted to contain approximately 5×10^5 cells/mL in growth media. To create a two-fold dilution series for the macrodilution technique, each compound was added to the first culture tube (4 mL total volume) at the highest concentration. 2 mL of this culture was diluted into an equal volume of inoculated media (a two-fold dilution). The final volume for each culture was 2 mL.

S. aureus FRI 100 [3] = experiment: Minimum biofilm eradication concentration (MBEC); assay type: cell-based, Staphylococcus aureus; conditions: S. aureus FRI 100 biofilm
Procedure: (§6) Determination of the minimum biofilm inhibitory concentration of growth (bMIC) and biofilm eradication concentration (MBEC). Overnight cultures of C. crescentus and S. aureus were grown and diluted 100-fold into appropriate nutrient media. Aliquots of the diluted suspension were transferred into wells of 96-well plates (150 μL/well). 2-fold serial dilutions were performed for compound-containing wells. For every experiment, three replicates for each compound concentration tested were included. After transferring aliquots of the suspension, the plates were closed with specialized lids that have protruding pins (Nunc STP System), and the plates were sealed using Parafilm®. The plates were incubated in a static incubator at 30° C. (C. crescentus) or 37° C. (S. aureus) for 24 hours. After the cells had formed biofilms on the surface of the pins, the pins were rinsed by dipping them in M2 (C. crescentus) or PBS (S. aureus) solutions. To rinse the pins, clean, sterile 96-well plates were used (aliquots of 200 μL/well); each rinse lasted 10 sec. After washing away planktonic cells loosely bound to biofilms, the pins were inserted into a 96-well plate that was pre-aliquoted with nutrient media containing antibiotics (2-fold dilutions, a final volume of 150 μL/well). The plates were sealed with Parafilm®, and incubated for 17 hours, and the bMIC was measured at the end of the incubation by visual inspection. After the bMIC run, the rinse steps were repeated to remove planktonic cells, and the pins were inserted into a 96-well plate that was pre-aliquoted with drug-free nutrient media (aliquots of 150 μL/well). The plates were sealed with Parafilm®, incubated for 24 hours, and the MBEC was measured at the end of the incubation by visual inspection.
After performing bMIC experiments, biofilms growing on the pins of the lid were transferred to nutrient media devoid of antibiotics to measure the minimum concentration of antibiotic that prevented planktonic growth from biofilms in antibiotic-free nutrient media (MBEC). […]

C. crescentus CB15N [4] = experiment: Minimum biofilm eradication concentration (MBEC); assay type: cell-based, Caulobacter crescentus
Procedure: as §6
After performing bMIC experiments, biofilms growing on the pins of the lid were transferred to nutrient media devoid of antibiotics to measure the minimum concentration of antibiotic that prevented planktonic growth from biofilms in antibiotic-free nutrient media (MBEC). MBEC indicates whether the exposure to antimicrobial agent used during the bMIC experiment sterilized biofilm-associated cells. […] CCCP was the only effective antibiotic against S. aureus biofilms. Since CCCP was not as effective as DCAP at killing stationary cells, it was hypothesized that this variability in efficacy of membrane-active drugs is in part caused by changes in membrane composition (i.e., membrane proteins and lipid content) at different developmental stages of bacterial cells. […]

S. aureus FRI 100 [5] = experiment: Minimum biofilm inhibitory concentration (bMIC); assay type: cell-based, Staphylococcus aureus; conditions: S. aureus FRI 100 biofilm
Procedure: as §6, with “After the bMIC run, the rinse steps were repeated to remove planktonic cells, and the pins were inserted into a 96-well plate that was pre-aliquoted with drug-free nutrient media (aliquots of 150 μL/well).” left out
(§7) Membrane-active compounds are also efficient at eradicating biofilm-associated cells (Table 2). […] To determine the efficacy of antibiotics against biofilms, the minimum biofilm inhibitory concentration (bMIC) and the minimum biofilm eradication concentration (MBEC) were measured. […] After 24 hours of exposure to compounds, the lowest concentration of antibiotic that inhibited planktonic cell growth in the wells (bMIC) was determined.

C. crescentus CB15N [6] = experiment: Minimum biofilm inhibitory concentration (bMIC); assay type: cell-based, Caulobacter crescentus
Procedure: as §6, with “After the bMIC run, the rinse steps were repeated to remove planktonic cells, and the pins were inserted into a 96-well plate that was pre-aliquoted with drug-free nutrient media (aliquots of 150 μL/well).” left out
as §7

C. crescentus CB15N [7] = experiment: Minimum stationary-bactericidal concentration (MSC); assay type: cell-based, Caulobacter crescentus; conditions: C. crescentus CB15N, stationary cells, 24 hours
Procedure: as §3, §4, §5

[8] = BW25113, read-out: MIC (ΔtolC E. coli)

## CCCCCNCC(O)Cn1c2ccc(Cl)cc2c2cc(Cl)ccc21 (stereo not drawn) [Compound 7]
E. coli BW25113 ΔtolC; [8]
  MIC: 5 µM

## OCC(CO)(CO)NC[C@H](O)Cn1c2ccc(Cl)cc2c2cc(Cl)ccc21 [Compound 3]
E. coli BW25113 ΔtolC; [8]
  MIC: 20 µM

## OCC(CO)(CO)NC[C@@H](O)Cn1c2ccccc2c2ccccc21 [Compound 4]
E. coli BW25113 ΔtolC; [8]
  MIC: > 80 µM

## CC(C)(C)NCC(O)Cn1c2ccc(Cl)cc2c2cc(Cl)ccc21 (stereo not drawn) [Compound 11]
E. coli BW25113 ΔtolC; [8]
  MIC: 40 µM

## CC(C)CCNCC(O)Cn1c2ccc(Cl)cc2c2cc(Cl)ccc21 (stereo not drawn) [Compound 8]
Morganella morganii
  MIC: 50 µM
Vibrio cholera
  MIC: 6.25 µM
Klebsiella pneumonia
  MIC: 50 µM
Enterobacter aerogenes
  MIC: 50 µM
Edwardsiella tarda
  MIC: 25 µM
Salmonella typhimurium
  MIC: 50 µM
Acinetobacter baumannii
  MIC: 12.5 µM
Shigella boydii
  MIC: 25 µM
E. coli BW25113 ΔtolC; BW25113
  MIC: 2.5 µM
E. coli BW25113 ΔtolC; [8]
  MIC: 2.5 µM

## CC1(C)S[C@@H]2[C@H](NC(=O)[C@H](N)c3ccccc3)C(=O)N2[C@H]1C(=O)O [Amp, ampicillin]
S. aureus FRI 100 [1]
  MSC: 100 µg/mL
C. crescentus CB15N [2]
  MIC: 50 µg/mL
S. aureus FRI 100 [3]
  MBEC: >200 µg/mL
C. crescentus CB15N [4]
  MBEC: >400 µg/mL
C. crescentus CB15N [4]; listed as ampicillin
  MBEC: > 400 µM
S. aureus FRI 100 [5]
  bMIC: 0.8 µg/mL
C. crescentus CB15N [6]
  bMIC: 100 µg/mL
C. crescentus CB15N [7]
  MSC: >400 µg/mL

## CCC(CO)(CO)NCC(O)Cn1c2ccc(Cl)cc2c2cc(Cl)ccc21 (stereo not drawn) [Compound 14]
E. coli BW25113 ΔtolC; [8]
  MIC: 20 µM

## CCC(CC)CNCC(O)Cn1c2ccc(Cl)cc2c2cc(Cl)ccc21 (stereo not drawn) [Compound 10]
Morganella morganii
  MIC: > 200 µM
Vibrio cholera
  MIC: 6.25 µM
Klebsiella pneumonia
  MIC: > 200 µM
Enterobacter aerogenes
  MIC: > 200 µM
Edwardsiella tarda
  MIC: 12.5 µM
Salmonella typhimurium
  MIC: 200 µM
Acinetobacter baumannii
  MIC: 25 µM
Shigella boydii
  MIC: 25 µM
E. coli BW25113 ΔtolC; BW25113
  MIC: 2.5 µM
E. coli BW25113 ΔtolC; [8]
  MIC: 2.5 µM

## OC(CNC1CCCCC1)Cn1c2ccc(Cl)cc2c2cc(Cl)ccc21 (stereo not drawn) [Compound 9]
Morganella morganii
  MIC: > 200 µM
Vibrio cholera
  MIC: 25 µM
Klebsiella pneumonia
  MIC: > 200 µM
Enterobacter aerogenes
  MIC: > 200 µM
Edwardsiella tarda
  MIC: 200 µM
Salmonella typhimurium
  MIC: > 200 µM
Acinetobacter baumannii
  MIC: 100 µM
Shigella boydii
  MIC: 200 µM
E. coli BW25113 ΔtolC; BW25113
  MIC: 2.5 µM
E. coli BW25113 ΔtolC; [8]
  MIC: 2.5 µM

## OCC(CO)(CO)NCC(O)CN1CCc2cc(Cl)ccc21 (stereo not drawn) [Compound 12]
E. coli BW25113 ΔtolC; [8]
  MIC: > 40 µM

## CCC(CC)NCC(O)Cn1c2ccc(Cl)cc2c2cc(Cl)ccc21 (stereo not drawn) [Compound 6]
E. coli BW25113 ΔtolC; [8]
  MIC: 5 µM

## OCC(CO)(CO)NC[C@@H](O)Cn1c2ccc(Cl)cc2c2cc(Cl)ccc21 [Compound 2]
E. coli BW25113 ΔtolC; [8]
  MIC: 20 µM

## CC(CO)(CO)NCC(O)Cn1c2ccc(Cl)cc2c2cc(Cl)ccc21 (stereo not drawn) [Compound 13]
E. coli BW25113 ΔtolC; [8]
  MIC: 40 µM

## OCC(CO)NCC(O)Cn1c2ccc(Cl)cc2c2cc(Cl)ccc21 (stereo not drawn) [Compound 5]
E. coli BW25113 ΔtolC; [8]
  MIC: 20 µM
